“Also recorded” adds a separate entry of the source.
Columns and labels:
[1] = target: T1, Horseradish Peroxidase (HRP, E.C. 1.11.1.7, type VI-A) entrapped in M25 magnetite nanoparticle clusters (M25-BNC) (Armoracia rusticana, UniProt P00433); assay: Phenol/AAP assay, H2O2 substrate inhibition model, M25-BNC; assay type: biochemical
T1 construct: purchased
T1 sequence (P00433 31-338 limits assumed): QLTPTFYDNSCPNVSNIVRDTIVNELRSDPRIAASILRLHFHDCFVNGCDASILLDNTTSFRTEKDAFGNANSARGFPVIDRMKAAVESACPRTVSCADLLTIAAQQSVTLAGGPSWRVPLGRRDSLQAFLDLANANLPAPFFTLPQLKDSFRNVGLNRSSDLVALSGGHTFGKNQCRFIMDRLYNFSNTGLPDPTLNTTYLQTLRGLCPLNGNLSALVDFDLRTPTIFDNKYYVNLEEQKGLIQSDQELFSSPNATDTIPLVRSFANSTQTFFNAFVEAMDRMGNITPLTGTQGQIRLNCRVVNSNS
Text: (§1) The enzymes used in this study were Horseradish Peroxidase (HRP, E.C. 1.11.1.7, type VI-A), Lignin Peroxidase (LiP, E.C. 1.11.1.14), Manganese Peroxidase (MnP; E.C. 1.11.1.13) Versatile Peroxidase (syn. hybrid peroxidase, manganese-lignin peroxidase: VeP EC 1.11.1.16), and laccase. All enzymes used herein were obtained from commercial sources. […] High activity forms were obtained by further purification by FPLC (AKTA Explorer, GE Bioscience) using an anionic exchange column (Resource Q, GE Bioscience). Laccase was used without further purification. Protein signal was monitored at 280 nm and the heme signal at 405 nm. For each enzyme, the fractions with a RZ above 1 were pulled together, concentrated and aliquoted. Phenol, homovanillic acid, veratryl alcohol, methoxylphenol, 4-aminoantipyrine (AAP), glucose (the foregoing being at 98% purity), sodium phosphate buffer (PBS) of pH 7.4 and 67 mM, magnetite microsphere powder, manganese sulfate, hydrogen peroxide, FeCl3.6H2O, and FeCl2.4H2O, O-phosphoethydiamine, gold tetrachlorohydrate, and malonate and tartrate disodium salts were obtained from commercial sources.
(§2) Magnetite nanoparticles were synthesized by co-precipitation of Fe^2+ and Fe^3+ under alkaline conditions in a bubbling nitrogen atmosphere at 25° C. (M25) or 90° C. (M90). An acidic solution (25 ml) of the iron salts (2 g of FeCl2.4H2O and 5.2 g of FeCl3.6H2O) was added dropwise to NaOH (250 ml, 1.5 M) under constant stirring. Non-oxidizing conditions were achieved by bubbling all solutions with nitrogen for 15 minutes prior to reaction. The instantaneous black precipitation of Fe3O4 was captured with a neodymium magnet, washed, and neutralized, and kept in distilled water until further use.
(§3) All BNCs were formed with either M90 or M25 magnetite nanoparticles, gold-coated or not. The BNCs were formed with either Horseradish peroxidase, Lignin Peroxidase, Manganese Peroxidase or Versatile Peroxidase. Typical BNC synthesis required the MNPs to be initially monodispersed (i.e., individualized and non-aggregated MNPs). MNPs were sonicated in an ultrasonic bath for 20 minutes at room temperature and used immediately to form the BNCs. In preliminary experiments, the effects of buffer composition, buffer strength, and incubation time were investigated to measure their influence on the formation of the BNCs and the activity of the enzymes. […]
(§4) The peroxidase activity of native HRP and BNC was monitored using the chromogenic phenol/AAP assay that generates phenoxy radicals that readily react with […] to form the pink-colored quinoneimine dye. An automated plate-reader (Synergy 4, Biotek) with injection capabilities and temperature-controlled chamber was used to record the absorbance of the solution at 510 nm in 96-well plates (4 replicates) for 30 minutes. […]

[2] = target: T2, Horseradish Peroxidase (HRP, E.C. 1.11.1.7, type VI-A) entrapped in M90 magnetite nanoparticle clusters (M90-BNC) (Armoracia rusticana, UniProt P00433); assay: Phenol/AAP assay, H2O2 substrate inhibition model, M90-BNC; assay type: biochemical
T2 construct: purchased
T2 sequence (P00433 31-338 limits assumed): T1 sequence (P00433 31-338 limits assumed)
Text: as §1, §2, §3, §4

[3] = compared to the free enzyme at the same concentration

OO [H2O2, hydrogen peroxide]
Ki (H2O2 substrate inhibition constant) ([1]; compared to free HRP): in the same range than the free HRP; also recorded: in the same range, if not lower, than for the free enzymes | Km ([1]; compared to free HRP): higher Km; also recorded: increased in the case of BNCs formed with M25 | Vmax [1, 3]: two to three times greater than the free enzyme; also recorded: increased in the case of BNCs formed with M25 compared to the Vmax of the free enzymes | kcat [1, 3]: two to three times greater than the free enzyme; also recorded: drastically increased in the case of BNCs formed with M25 compared to the free enzyme | Vmax ([2]; compared to free HRP): similar; also recorded: No difference in Vmax | kcat ([2]; compared to free HRP): also increased for lower concentrations of enzymes | Ki (H2O2 substrate inhibition constant) ([2]; in words, compared to free HRP): drastically increased | Ki (H2O2 substrate inhibition constant), times greater than the free HRP ([2]; ratio to free HRP): about 10 times

Source: US10316313B2, “Mesoporous catalysts of magnetic nanoparticles and free-radical-producing enzymes, and methods of use” (Cornell University, priority 2011, dated 2019)
